{
  "source": "patent US6482815B1",
  "about": "(priority 1999, dated 2002)",
  "key": {"[1]": {"test_system": "MOLT-3", "assay": "In situ detection of apoptosis (nick-end-labeling, ApopTag), MOLT-3", "format": "cell-based, human", "conditions": "MOLT-3, WHI-P381 2 μg/ml, 36 hour incubation (FIG. 1D)", "procedure": "(§1) Assay for apoptosis was performed by the in situ nick-end-labeling method using an ApopTag in situ detection kit (Oncor, Gaithersburg, Md.) according to the manufacturer's recommendations. Exponentially growing cells (NALM-6 and MOLT-3) were seeded in 6-well tissue culture plates at a density of 50×10^4 cells/well and cultured for 36 hours at 37° C. in a humidified 5% CO2 atmosphere. The supernatant culture medium was carefully aspirated and replaced with fresh medium alone or fresh medium containing WHI-P381 at a concentration of 2 μg/ml.\n(§2) After a 36 hour incubation at 37° C. in a humidified 5% CO2 incubator, the supernatants were carefully aspirated and the cells were treated for 1-2 minutes with 0.1% trypsin. The detached cells were collected into a 15 ml centrifuge tube, washed with medium and pelleted by centrifugation at 1000 rpm for 5 minutes. Cells were resuspended in 50 μl of PBS, transferred to poly-L-lysine coated coverslips and allowed to attach for 15 minutes. The cells were washed once with PBS and incubated with equilibration buffer for 10 minutes at room temperature.\n(§3) After removal of the equilibration buffer, cells were incubated for 1 hour at 37° C. with the reaction mixture containing terminal deoxynucleotidyl transferase (TdT) and digoxigenin-11-UTP for labeling of exposed 3′-hydroxyl ends of fragmented nuclear DNA. […]"}, "[2]": {"test_system": "NALM-6", "assay": "Anti-proliferative activity (colony counts), NALM-6", "format": "cell-based, human", "excerpt": "(§4) The dose-responsive anti-proliferative activity of various organic arsenic acid substituted compounds against leukemic cell lines (NALM-6 and MOLT-3) is shown below in Table 3. FIGS. 3A-3F show dose response curves in ALL1, NALM-6, and MOLT-3 cells."}, "[3]": {"test_system": "MOLT-3", "assay": "Anti-proliferative activity (colony counts), MOLT-3", "format": "cell-based, human", "excerpt": "as §4"}, "[4]": {"test_system": "RS4;11", "assay": "cells", "format": "cell-based", "conditions": "Homo sapiens, RS4-11, read-out: RS4;11 IC50"}, "[5]": {"test_system": "BT20"}, "[6]": {"test_system": "primary leukemic cells", "assay": "MTT cytotoxicity against primary leukemic cells", "conditions": "cells from 5 leukemia patients, FIGS. 4A-4E"}, "[7]": {"test_system": "NALM-6 cells", "assay": "MTT cytotoxicity over 1-4 days versus arsenic trioxide, NALM-6", "conditions": "for IC50: Homo sapiens"}, "[8]": {"test_system": "ALL1", "assay": "cells", "format": "cell-based", "conditions": "Homo sapiens, read-out: ALL1 IC50"}, "[9]": {"test_system": "NALM-6", "assay": "cells", "format": "cell-based", "conditions": "Homo sapiens, NALM-6, read-out: NALM-6 IC50"}, "[10]": {"test_system": "NALM-6", "assay": "In situ detection of apoptosis (nick-end-labeling, ApopTag), NALM-6", "format": "cell-based, human", "conditions": "NALM-6, WHI-P381 2 μg/ml, 36 hour incubation (FIG. 1B)", "procedure": "as §1, §2, §3"}, "[11]": {"test_system": "MOLT-3", "assay": "cells", "format": "cell-based", "conditions": "Homo sapiens, MOLT-3, read-out: MOLT-3 IC50"}, "[12]": {"test_system": "leukemic cell lines (NALM-6, MOLT-3, ALL1, RS4;11)", "assay": "cells", "conditions": "Homo sapiens, read-out: IC50 values in leukemic cell lines"}, "[13]": {"test_system": "BT20", "assay": "cells", "conditions": "Homo sapiens, BT-20, read-out: BT20 IC50"}, "[14]": {"conditions": "NALM-6, concentration 0.1 (mM as printed)"}, "[15]": {"conditions": "NALM-6, concentration 1 (mM as printed)"}, "[16]": {"conditions": "NALM-6, concentration 10 (mM as printed)"}, "[17]": {"conditions": "NALM-6, concentration 100 (mM as printed)"}, "[18]": {"conditions": "MOLT-3, concentration 0.1 (mM as printed)"}, "[19]": {"conditions": "MOLT-3, concentration 1 (mM as printed)"}, "[20]": {"conditions": "MOLT-3, concentration 10 (mM as printed)"}, "[21]": {"conditions": "MOLT-3, concentration 100 (mM as printed)"}},
  "note": "Read-outs that look alike come from different tables or passages of the source.",
  "data": [
    {"smiles": "CSc1nccc(Nc2ccccc2[As](=O)(O)O)n1", "note": "[WHI-P381, 2-Methylthio4-(2′-phenylarsenic acid)-aminopyrimidine]", "values": [
      {"measurement": "apoptosis: fluorescence versus untreated cells", "setting": "[1]", "result": "much greater Fluorescence"},
      {"measurement": "% Inhibition", "setting": "[2]; [14]", "result": 100, "unit": "%"},
      {"measurement": "Mean No. of Colonies/10^6 Cells", "setting": "[2]; [14]", "result": 0, "unit": "Colonies/10^6 Cells"},
      {"measurement": "% Inhibition", "setting": "[2]; [15]", "result": 100, "unit": "%"},
      {"measurement": "Mean No. of Colonies/10^6 Cells", "setting": "[2]; [15]", "result": 0, "unit": "Colonies/10^6 Cells"},
      {"measurement": "% Inhibition", "setting": "[2]; [16]", "result": 100, "unit": "%"},
      {"measurement": "Mean No. of Colonies/10^6 Cells", "setting": "[2]; [16]", "result": 0, "unit": "Colonies/10^6 Cells"},
      {"measurement": "% Inhibition", "setting": "[2]; [17]", "result": 100, "unit": "%"},
      {"measurement": "Mean No. of Colonies/10^6 Cells", "setting": "[2]; [17]", "result": 0, "unit": "Colonies/10^6 Cells"},
      {"measurement": "% Inhibition", "setting": "[3]; [18]", "result": 70.2, "unit": "%"},
      {"measurement": "Mean No. of Colonies/10^6 Cells", "setting": "[3]; [18]", "result": "429(202, 656) Colonies/10^6 Cells"},
      {"measurement": "% Inhibition", "setting": "[3]; [19]", "result": 100, "unit": "%"},
      {"measurement": "Mean No. of Colonies/10^6 Cells", "setting": "[3]; [19]", "result": 0, "unit": "Colonies/10^6 Cells"},
      {"measurement": "% Inhibition", "setting": "[3]; [20]", "result": 100, "unit": "%"},
      {"measurement": "Mean No. of Colonies/10^6 Cells", "setting": "[3]; [20]", "result": 0, "unit": "Colonies/10^6 Cells"},
      {"measurement": "% Inhibition", "setting": "[3]; [21]", "result": 100, "unit": "%"},
      {"measurement": "Mean No. of Colonies/10^6 Cells", "setting": "[3]; [21]", "result": 0, "unit": "Colonies/10^6 Cells"},
      {"measurement": "IC50", "setting": "[4]", "result": "< 1900", "unit": "nM"},
      {"measurement": "melting point", "result": "225 to 228", "unit": "°C"},
      {"measurement": "cytotoxic against the breast cancer cell line BT20 (in words)", "setting": "[5]", "result": "cytotoxic"},
      {"measurement": "cytotoxic activity against primary leukemic cells (in words)", "setting": "[6]", "result": "susceptible to the cytotoxic effects"},
      {"measurement": "IC50", "setting": "[7]; NALM-6, 24 h, read-out: Cytotoxicity against NALM-6 cells IC50, Day 1", "result": 2030, "unit": "nM"},
      {"measurement": "IC50", "setting": "[7]; NALM-6, 48 h, read-out: Cytotoxicity against NALM-6 cells IC50, Day 2", "result": 850, "unit": "nM"},
      {"measurement": "IC50", "setting": "[7]; NALM-6, 72 h, read-out: Cytotoxicity against NALM-6 cells IC50, Day 3", "result": 700, "unit": "nM"},
      {"measurement": "IC50", "setting": "[7]; NALM-6, 96 h, read-out: Cytotoxicity against NALM-6 cells IC50, Day 4", "result": 680, "unit": "nM"},
      {"measurement": "cytotoxicity compared with arsenic trioxide (in words)", "setting": "[7]; NALM-6, 0.07 μM to 5 μM, 1-4 days, FIGS. 2A-2D", "result": "more cytotoxic than arsenic trioxide"},
      {"measurement": "IC50", "setting": "[8]", "result": "< 1900", "unit": "nM"},
      {"measurement": "IC50", "setting": "[9]", "result": "< 1900", "unit": "nM"},
      {"measurement": "apoptosis: fluorescence versus untreated cells", "setting": "[10]", "result": "much greater Fluorescence"},
      {"measurement": "IC50", "setting": "[11]", "result": "< 1900", "unit": "nM"},
      {"measurement": "IC50", "setting": "[12]", "result": "≤ 1900", "unit": "nM"},
      {"measurement": "IC50", "setting": "[13]", "result": 17300, "unit": "nM"}
    ]}
  ]
}
